Measurements published in patent US20050215625A9, “Combination therapy for anticoagulation” (priority 2003, published 2005).
Where two headings read alike, the source gives them in different places.

Tested on: anticoagulation level (International Normalized Ratio)
Conditions: for variation from low to high doses of warfarin / warfarin dose, low to high: across the first 24 measures
Method: Adult anticoagulation patients presenting to the practice site were informed of the study, and the opportunity to be a test subject. Subjects were required to complete a study entry data interview, provide informed consent, and present to the clinic once to twice weekly for INR evaluation. The control group and a second group (the algorithm group) of patients were provided warfarin alone as an anticoagulation agent, while the study group patients received warfarin and 100 μg of vitamin K in a single gelatin capsule from a single pharmacy. […] The study received clearance from the St. Mary's Medical Center Institutional Review Board, Galesburg, Ill.
An initial study interview was conducted and identified a patient's sex, age, indication for anticoagulation, and prescription and nonprescription medication usage. Those who were appropriate for study and provided consent were required to present to the clinic for once or twice weekly INR testing.
The control group (N=6) received their warfarin dosed by conventional tablet forms and presented to the office at least weekly for INR labs (more often if dosage changes were required).
The algorithm group (N=6) received their warfarin based upon an algorithm devised by the investigators to standardize the adjustments and the dosing of warfarin in smaller increments than those available in conventional dosages of oral medication (tablets). The algorithm specified dosages of warfarin other than those used by the manufacturer, in order for the prescribing physician to specify smaller incremental dosage changes than those permitted with the standard dosages available.
The purpose of having the algorithm group as a part of the study was to determine if the algorithm played a significant role in reducing nontherapeutic anticoagulation intervals. […] If a dosing adjustment was required due to a nontherapeutic INR, the dose of warfarin would be adjusted in a fixed increment and the time of the next INR set by reducing the interval.
The second theory behind the algorithm is that at the lower warfarin doses, the interval between easily taken amounts is a significant dose change. For example, the increase in dosage between 1 mg and 2 mg daily is a 100 percent dose increase. In comparison, the increase between the 4 mg tab and the 5 mg tab is a 25 percent dose increase. In order to create smaller dosage steps between doses of warfarin, the various available tablets were halved along their scoring lines and the appropriate amount was placed into a gelatin capsule for easy daily dosing. For instance, a dose of 1.75 mg warfarin required one-half of a 2.5 mg tablet and one-half of a 1 mg tab to be placed into a gelatin capsule. A cooperating compounding pharmacist placed the daily doses of warfarin into gelatin capsules for the use of the patients in the algorithm group.
The study group (N=12) received warfarin combined with 100 μg of vitamin K compounded into a gelatin capsule by the compounding pharmacist. The warfarin was dosed by the study algorithm, described above. Patients who randomized to this group received their current dose of warfarin along with the dose of vitamin K in the daily gelatin capsule. And as the INR fluctuated, the dose of warfarin was adjusted by the algorithm.
The combination of warfarin and vitamin K was accomplished by adding fixed amounts of each into an orally dosed form. The doses of warfarin used within the study protocol were (in milligrams): 0.5, 1, 1.25, 1.5, 1.75, 2.0, 2.25, 2.5, 2.75, 3.0, 3.25, 3.5, 3.75, 4.0, 4.5, 5.0, 5.5, 6.0, 6.5, 7.0, 7.5, 8.0, 8.5, 9.0, 9.5, 10, 11, 12, 13, 15.

[1] = algorithm only arm, average dose
[2] = combination capsule group (dosed by algorithm) or standard care group

CC(=O)CC(c1ccccc1)c1c(O)c2ccccc2oc1=O (centres unmarked) [warfarin alone, 3-(_-acetonylbenzyl)-4-hydroxycoumarin]
variation from low to high doses of warfarin [1]: 25.3% | warfarin dose, low to high [1]: 4.71-6.30 mgs | variation from low to high doses of warfarin [2]: 36.9% | warfarin dose, low to high [2]: 3.50-5.55 mgs | persons with a dosage change in their anticoagulation after a change in concomitant medical therapy (control and algorithm arms, includes two subjects who had this occur twice): Eight | number of clinically safe anticoagulation levels (INR level between 2.0 and 3.0) (over six months, INR at least weekly, up to 35 INR measurements, combination group N=12 (100 μg vitamin K) vs control and algorithm groups combined, p=0.032): 14.83 | number of medically safe anticoagulation levels (INR level between 1.8 and 3.5) (over six months, INR at least weekly, combination group N=12 vs control and algorithm groups combined, p=0.048): 18.42 | number of medically unsafe INRs (INR less than 1.5 or greater than 4.9) (over six months, combination group N=12 vs control and algorithm groups combined, p=0.054, not significant): 22.00
